Experimental data reported in US11267965B2, “Polymeric materials for biomedical applications” (Aleo BME, Inc., priority 2015, dated 2022).

How the values were obtained:
PC-12 cells = assay: PC12 cell neurite outgrowth assay; format: cell-based, rat
Schwann cells [1] = assay: Quantification of global DNA methylation; format: cell-based; conditions: second day of culture
Schwann cells [2] = assay: Schwann cell migration, transwell model; format: cell-based; conditions: 4 hr migration, compared to 4, 100 and 200 mg/L folate
[3] = tested on: MAP-2 protein expression in PC12 cells; assay: Western blot analysis of microtubule-associated protein-2 (MAP-2) in PC12 cells; format: cell-based, rat; conditions: 14 days
Schwann cells [4] = assay: Schwann cell migration, microchannel-based migration assay (live cell imaging); conditions: left reservoir 4 mg/L folate, right reservoir 50 mg/L folate; channel width 200 μm
PC12 cells = assay: Quantification of global DNA methylation; format: cell-based, rat; conditions: second day of culture

## Nc1nc2ncc(CNc3ccc(C(=O)N[C@@H](CCC(=O)O)C(=O)O)cc3)nc2c(=O)[nH]1 [folic acid]
PC-12 cells; 50-100 mg/L folate with 50 ng/mL NGF, day 7, control medium 1.3 mg/L folate <100 μm
  neurite outgrowth (average neurite length): > 150 μm
PC-12 cells; day 3 of culture, neural differentiation medium with 5 ng/ml neural growth factor
  folic acid concentration with highest neurite outgrowth: 50 mg/L
PC-12 cells; folic acid supplemented medium
  PC-12 neurite outgrowth rate: promote PC-12 neurite outgrowth rate in a dose-dependent manner
PC-12 cells; within the concentrations investigated
  optimal folic acid supplement concentration for promoting PC-12 differentiation and neurite outgrowth: 50 to 100 mg/L
Schwann cells [1]
  folate concentration with highest global DNA methylation: 50 mg/L
Schwann cells [2]
  folate concentration of medium toward which the highest number of Schwann cells migrated: 50 mg/L
[3]; 50 mg/L folate, in the presence of NGF (50 ng/mL)
  MAP-2 protein expression relative to control medium (1.3 mg/L folate): 2.56 folds
[3]; 50 and 100 mg/L folate, in the absence of NGF
  MAP-2 protein expression relative to control sample (1.3 mg/L folate): 2.22-2.30 folds
Schwann cells [4]
  Schwann cell migration direction in microchannels: migration of Schwann cell from low folate medium to high folate medium
PC12 cells
  folate concentration with highest global DNA methylation: 50 mg/L
